# Legend:
# [1] = system: MV4-11 AML SQ xenografts; format: in vivo, mouse; details: MV4-11 xenograft, 5 mg/kg or 10 mg/kg orally once daily for 20 days
# Procedure: Human MV4-11 acute myeloid leukemia (AML) cancer cells (5×10^6) that have FLT-ITD mutations were resuspended in serum-free RPMI1640 medium and Matrigel (ration of 1:1) and subcutaneously injected into the flank of 5-6 weeks old female NOD/SCID/IL-2rg(ko)(NSG). When palpable tumor sizes reached at approximately 50 mm^3, mice were divided into three groups (vehicle=9, 5 mg/kg dose group=8, 10 dose mg/kg group=8). Then, S enantiomer was orally administered at 5 mg/kg or 10 mg/kg with vehicle (10% DMSO+30% Solutol+60% saline), once daily for 20 days. Tumor volumes were calculated by the formula 1/2a×b^2, where a is the long diameter, and b is the short diameter. Tumor volumes correlate with tumor weights. The statistical significance of group differences was analyzed using a Student's t-test with the two-tailed distribution. P values less than 0.05 were considered statistically significant.
# [2] = system: MOLM-13 AML cells; assay: MTS cell viability assay; format: cell-based
# Procedure: IC50 Determinations for Ovarian, Liver, Pancreatic, CML, AML Cancer Cell Lines (See e.g. FIGS. 4, 6A-6C, 21, 22A, 22B, 23, 24A-24C, 25A, 25B and 34): MTS assays were performed for cell viability. SKOV3 ovarian cancer, Huh-7 hepatocellular carcinoma, MIA-PaCa2 pancreatic cancer, KCL-22 CML, T315I mutant KCL-22 CML, MOLM-13 AML and MV4-11 AML cells were seeded in 96-well plates (5000 cells/well for solid tumors, 10000 cells/well for blood tumors), incubated overnight at 37° C. in 5% CO2, and exposed to racemic ETP69 or S enantiomer in a dose-dependent manner for 48 h. Dimethyl sulfoxide (DMSO) was used as the vehicle control. Viable cell numbers were determined by tetrazolium conversion to its formazan dye and absorbance was measured at 490 nm using an automated ELISA plate reader. Each experiment was performed in quadruplicate.
Compound,toxicity symptoms [1],increase in inhibitory capacity when compared to the (R) enantiomer [2] [fold]
"CN1C(=O)[C@@]23C[C@](C)(C#N)[C@H](c4ccc5c(c4)OCO5)N2C(=O)[C@]1(C)SS3 (single isomer, unassigned) [ETP417]",no observable toxicity symptoms,
"CN1C(=O)[C@@]23C[C@](C)(C#N)[C@H](c4ccc5c(c4)OCO5)N2C(=O)[C@]1(C)SS3 [(S) enantiomer of ETP69, (3S,6S,7S,8aS)-6-(benzo[d][1,3]dioxol-5-yl)-2,3,7-trimethyl-1,4-dioxohexahydro-6H-3,8a-epidithiopyrrolo[1,2-a]pyrazine-7-carbonitrile]",,~4

# Reference: US9856273B2, “ETP derivatives” (priority 2012, dated 2018)
